Test results: the kinase profiling compilation of Christmann-Franck et al. (2016)

Experiments:
LYN (human) = LYN (human) (UniProt P07948); experiment: HTRF
RET (human) = RET (human) (UniProt P07949); experiment: HTRF
SRC (human) = SRC (human) (UniProt P12931); experiment: HTRF
AKT2 (human) = AKT2 (human) (UniProt P31751); experiment: Flashplate
AURKB (human) = AURKB (human) (UniProt Q96GD4); experiment: Flashplate
CDC42BPA (human) = CDC42BPA (human) (UniProt Q5VT25); experiment: Flashplate
CHEK2 (human) = CHEK2 (human) (UniProt O96017); experiment: Flashplate
CLK4 (human) = CLK4 (human) (UniProt Q9HAZ1); experiment: Flashplate
CSNK1A1 (human) = CSNK1A1 (human) (UniProt P48729); experiment: Flashplate
CSNK1G1 (human) = CSNK1G1 (human) (UniProt Q9HCP0); experiment: Flashplate
CSNK2A1 (human) = CSNK2A1 (human) (UniProt P68400); experiment: Flashplate
DAPK3 (human) = DAPK3 (human) (UniProt O43293); experiment: Flashplate
DYRK3 (human) = DYRK3 (human) (UniProt O43781); experiment: Flashplate
DYRK4 (human) = DYRK4 (human) (UniProt Q9NR20); experiment: Flashplate
GSK3A (human) = GSK3A (human) (UniProt P49840); experiment: Flashplate
HIPK2 (human) = HIPK2 (human) (UniProt Q9H2X6); experiment: Flashplate
HIPK4 (human) = HIPK4 (human) (UniProt Q8NE63); experiment: Flashplate
IRAK4 (human) = IRAK4 (human) (UniProt Q9NWZ3); experiment: Flashplate
MAP4K4 (human) = MAP4K4 (human) (UniProt O95819); experiment: Flashplate
MAPK1 (human) = MAPK1 (human) (UniProt P28482); experiment: Flashplate
MAPK13 (human) = MAPK13 (human) (UniProt O15264); experiment: Flashplate
MAPKAPK2 (human) = MAPKAPK2 (human) (UniProt P49137); experiment: Flashplate
MAPKAPK3 (human) = MAPKAPK3 (human) (UniProt Q16644); experiment: Flashplate
MARK3 (human) = MARK3 (human) (UniProt P27448); experiment: Flashplate
MELK (human) = MELK (human) (UniProt Q14680); experiment: Flashplate
MINK1 (human) = MINK1 (human) (UniProt Q8N4C8); experiment: Flashplate
NEK2 (human) = NEK2 (human) (UniProt P51955); experiment: Flashplate
NEK4 (human) = NEK4 (human) (UniProt P51957); experiment: Flashplate
PAK1 (human) = PAK1 (human) (UniProt Q13153); experiment: Flashplate
PDPK1 (human) = PDPK1 (human) (UniProt O15530); experiment: Flashplate
PHKG2 (human) = PHKG2 (human) (UniProt P15735); experiment: Flashplate
PIM1 (human) = PIM1 (human) (UniProt P11309); experiment: Flashplate
PIM2 (human) = PIM2 (human) (UniProt Q9P1W9); experiment: Flashplate
PIM3 (human) = PIM3 (human) (UniProt Q86V86); experiment: Flashplate
PLK4 (human) = PLK4 (human) (UniProt O00444); experiment: Flashplate
PRKG1 (human) = PRKG1 (human) (UniProt Q13976); experiment: Flashplate
PRKG2 (human) = PRKG2 (human) (UniProt Q13237); experiment: Flashplate
ROCK1 (human) = ROCK1 (human) (UniProt Q13464); experiment: Flashplate
SRPK1 (human) = SRPK1 (human) (UniProt Q96SB4); experiment: Flashplate
STK17A (human) = STK17A (human) (UniProt Q9UEE5); experiment: Flashplate
STK3 (human) = STK3 (human) (UniProt Q13188); experiment: Flashplate

Chain of GSK3A (human) (P49840 whole entry, looked up): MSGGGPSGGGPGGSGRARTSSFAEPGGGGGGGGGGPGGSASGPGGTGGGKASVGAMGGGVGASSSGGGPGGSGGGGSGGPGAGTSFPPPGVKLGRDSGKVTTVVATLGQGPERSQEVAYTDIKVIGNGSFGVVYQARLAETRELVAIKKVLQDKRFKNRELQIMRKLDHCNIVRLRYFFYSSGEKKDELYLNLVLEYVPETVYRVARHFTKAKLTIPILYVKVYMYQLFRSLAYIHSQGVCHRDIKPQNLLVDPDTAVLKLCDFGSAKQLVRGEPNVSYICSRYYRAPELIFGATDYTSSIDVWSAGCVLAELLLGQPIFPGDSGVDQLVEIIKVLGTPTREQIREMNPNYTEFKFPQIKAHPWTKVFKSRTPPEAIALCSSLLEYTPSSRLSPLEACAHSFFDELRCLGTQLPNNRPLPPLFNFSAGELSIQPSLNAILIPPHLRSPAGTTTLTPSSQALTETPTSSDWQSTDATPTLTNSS
Chain of LYN (human) (P07948 whole entry, looked up): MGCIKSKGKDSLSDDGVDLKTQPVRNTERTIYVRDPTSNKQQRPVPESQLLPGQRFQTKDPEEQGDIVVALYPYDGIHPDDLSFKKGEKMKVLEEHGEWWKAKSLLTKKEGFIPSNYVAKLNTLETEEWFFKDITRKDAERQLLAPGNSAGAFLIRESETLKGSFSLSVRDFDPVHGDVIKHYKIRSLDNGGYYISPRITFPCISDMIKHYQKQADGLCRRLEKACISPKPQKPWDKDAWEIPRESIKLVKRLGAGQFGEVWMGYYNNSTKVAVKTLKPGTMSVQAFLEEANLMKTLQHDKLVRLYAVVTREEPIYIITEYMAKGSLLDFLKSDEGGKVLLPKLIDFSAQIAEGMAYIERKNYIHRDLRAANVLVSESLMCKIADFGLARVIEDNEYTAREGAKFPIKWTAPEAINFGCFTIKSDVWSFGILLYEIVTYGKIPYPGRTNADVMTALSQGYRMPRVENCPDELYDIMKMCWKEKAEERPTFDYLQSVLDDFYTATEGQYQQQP
Chain of MELK (human) (Q14680 whole entry, looked up): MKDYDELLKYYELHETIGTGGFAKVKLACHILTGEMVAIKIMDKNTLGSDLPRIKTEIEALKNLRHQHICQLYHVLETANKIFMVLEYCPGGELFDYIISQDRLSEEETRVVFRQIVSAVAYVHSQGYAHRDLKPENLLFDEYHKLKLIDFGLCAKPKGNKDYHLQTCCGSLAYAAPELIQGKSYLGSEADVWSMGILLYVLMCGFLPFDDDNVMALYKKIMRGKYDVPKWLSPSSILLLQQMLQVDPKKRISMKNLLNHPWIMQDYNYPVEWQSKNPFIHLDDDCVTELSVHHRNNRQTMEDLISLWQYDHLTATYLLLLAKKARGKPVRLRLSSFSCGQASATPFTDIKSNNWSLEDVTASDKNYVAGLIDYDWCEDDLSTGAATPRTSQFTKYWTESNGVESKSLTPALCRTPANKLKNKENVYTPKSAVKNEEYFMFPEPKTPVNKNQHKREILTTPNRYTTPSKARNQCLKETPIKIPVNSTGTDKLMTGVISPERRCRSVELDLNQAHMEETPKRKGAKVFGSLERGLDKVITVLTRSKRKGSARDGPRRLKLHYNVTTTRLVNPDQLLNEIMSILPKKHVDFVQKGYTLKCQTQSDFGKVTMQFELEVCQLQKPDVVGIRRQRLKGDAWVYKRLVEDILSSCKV
Chain of MAPK1 (human) (P28482 whole entry, looked up): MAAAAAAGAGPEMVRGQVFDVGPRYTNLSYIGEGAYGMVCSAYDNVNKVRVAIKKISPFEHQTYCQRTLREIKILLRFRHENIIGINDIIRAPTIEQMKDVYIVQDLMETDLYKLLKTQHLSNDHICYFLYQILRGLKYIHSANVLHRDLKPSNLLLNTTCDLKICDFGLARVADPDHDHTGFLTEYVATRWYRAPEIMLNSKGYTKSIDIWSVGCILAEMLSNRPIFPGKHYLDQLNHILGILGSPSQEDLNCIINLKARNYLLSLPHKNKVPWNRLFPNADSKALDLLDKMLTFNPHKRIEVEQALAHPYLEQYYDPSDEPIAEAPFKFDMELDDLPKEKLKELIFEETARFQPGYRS
Chain of CSNK1A1 (human) (P48729 whole entry, looked up): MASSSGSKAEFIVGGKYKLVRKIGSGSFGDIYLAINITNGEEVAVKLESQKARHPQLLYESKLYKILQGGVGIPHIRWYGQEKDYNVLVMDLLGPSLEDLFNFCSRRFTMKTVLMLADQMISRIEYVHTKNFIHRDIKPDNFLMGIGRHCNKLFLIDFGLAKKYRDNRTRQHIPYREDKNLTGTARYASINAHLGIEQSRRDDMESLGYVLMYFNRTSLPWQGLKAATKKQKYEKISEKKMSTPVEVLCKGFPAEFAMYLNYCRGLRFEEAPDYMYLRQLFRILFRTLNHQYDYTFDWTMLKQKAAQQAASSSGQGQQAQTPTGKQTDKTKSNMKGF
Chain of SRC (human) (P12931 whole entry, looked up): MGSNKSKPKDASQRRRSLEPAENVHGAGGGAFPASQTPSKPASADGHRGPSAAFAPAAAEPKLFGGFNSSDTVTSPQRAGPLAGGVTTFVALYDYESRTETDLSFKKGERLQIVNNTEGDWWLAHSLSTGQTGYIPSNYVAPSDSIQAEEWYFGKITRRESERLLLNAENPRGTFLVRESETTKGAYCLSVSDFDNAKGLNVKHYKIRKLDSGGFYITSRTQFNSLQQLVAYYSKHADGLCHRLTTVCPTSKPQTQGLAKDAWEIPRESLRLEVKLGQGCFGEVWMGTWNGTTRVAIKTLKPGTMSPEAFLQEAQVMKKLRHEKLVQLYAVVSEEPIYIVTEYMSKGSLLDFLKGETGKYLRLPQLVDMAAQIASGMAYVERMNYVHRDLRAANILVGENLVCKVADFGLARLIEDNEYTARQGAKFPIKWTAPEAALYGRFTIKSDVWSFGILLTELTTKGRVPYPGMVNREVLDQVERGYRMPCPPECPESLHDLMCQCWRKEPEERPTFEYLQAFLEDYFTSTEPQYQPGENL
Chain of PRKG1 (human) (Q13976 whole entry, looked up): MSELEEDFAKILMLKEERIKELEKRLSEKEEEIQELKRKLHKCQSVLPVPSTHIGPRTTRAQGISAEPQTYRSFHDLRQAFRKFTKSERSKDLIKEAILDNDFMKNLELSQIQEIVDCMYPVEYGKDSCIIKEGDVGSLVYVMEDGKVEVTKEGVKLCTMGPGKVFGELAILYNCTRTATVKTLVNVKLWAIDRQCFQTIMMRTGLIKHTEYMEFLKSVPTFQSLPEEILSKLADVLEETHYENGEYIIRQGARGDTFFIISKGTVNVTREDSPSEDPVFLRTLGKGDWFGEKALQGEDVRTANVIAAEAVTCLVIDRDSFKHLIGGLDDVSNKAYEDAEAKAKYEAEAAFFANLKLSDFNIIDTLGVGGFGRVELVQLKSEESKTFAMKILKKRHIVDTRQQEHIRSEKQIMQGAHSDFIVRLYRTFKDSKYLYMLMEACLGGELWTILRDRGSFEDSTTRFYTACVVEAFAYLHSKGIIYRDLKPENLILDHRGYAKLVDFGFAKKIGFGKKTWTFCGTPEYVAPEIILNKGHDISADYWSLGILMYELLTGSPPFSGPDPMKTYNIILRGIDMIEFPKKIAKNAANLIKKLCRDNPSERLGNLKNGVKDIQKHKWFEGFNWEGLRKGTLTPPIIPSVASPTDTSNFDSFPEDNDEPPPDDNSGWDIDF
Chain of CHEK2 (human) (O96017 whole entry, looked up): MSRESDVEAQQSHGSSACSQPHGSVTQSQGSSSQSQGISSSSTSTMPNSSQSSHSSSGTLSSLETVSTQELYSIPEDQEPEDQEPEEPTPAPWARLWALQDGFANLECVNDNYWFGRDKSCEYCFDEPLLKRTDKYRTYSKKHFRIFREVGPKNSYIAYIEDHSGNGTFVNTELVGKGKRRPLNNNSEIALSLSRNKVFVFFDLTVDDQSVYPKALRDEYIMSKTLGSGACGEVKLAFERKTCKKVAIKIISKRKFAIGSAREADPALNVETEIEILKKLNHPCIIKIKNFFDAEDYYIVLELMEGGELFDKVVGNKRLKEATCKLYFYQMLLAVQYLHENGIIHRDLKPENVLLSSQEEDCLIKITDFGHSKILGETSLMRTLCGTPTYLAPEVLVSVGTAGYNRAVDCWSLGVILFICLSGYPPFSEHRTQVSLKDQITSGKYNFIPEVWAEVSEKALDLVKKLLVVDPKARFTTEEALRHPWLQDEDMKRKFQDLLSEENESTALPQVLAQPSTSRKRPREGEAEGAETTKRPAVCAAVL
Chain of AKT2 (human) (P31751 whole entry, looked up): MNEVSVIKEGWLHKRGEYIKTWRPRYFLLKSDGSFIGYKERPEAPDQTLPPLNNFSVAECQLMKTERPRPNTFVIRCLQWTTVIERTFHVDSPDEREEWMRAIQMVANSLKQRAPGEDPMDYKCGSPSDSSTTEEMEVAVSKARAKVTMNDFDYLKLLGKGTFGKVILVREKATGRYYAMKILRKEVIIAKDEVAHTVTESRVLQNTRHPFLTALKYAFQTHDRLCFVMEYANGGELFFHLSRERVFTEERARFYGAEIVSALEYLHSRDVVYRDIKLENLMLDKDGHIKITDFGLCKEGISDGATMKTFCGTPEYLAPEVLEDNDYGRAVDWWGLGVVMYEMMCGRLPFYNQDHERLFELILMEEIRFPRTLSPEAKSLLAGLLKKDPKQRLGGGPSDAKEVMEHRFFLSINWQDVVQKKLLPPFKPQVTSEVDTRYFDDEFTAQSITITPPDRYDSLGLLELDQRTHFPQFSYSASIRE

O=C1c2ccccc2-c2n[nH]c3cccc1c23
Ki (LYN (human)): 1000 nM
Ki (RET (human)): 63.1 nM
Ki (SRC (human)): > 2000 nM
Ki (AKT2 (human)): > 7940 nM
Ki (AURKB (human)): 10 nM
Ki (CDC42BPA (human)): > 10000 nM
Ki (CHEK2 (human)): 501 nM
Ki (CLK4 (human)): 63.1 nM
Ki (CSNK1A1 (human)): 316 nM
Ki (CSNK1G1 (human)): > 6310 nM
Ki (CSNK2A1 (human)): 501 nM
Ki (DAPK3 (human)): 398 nM
Ki (DYRK3 (human)): 316 nM
Ki (DYRK4 (human)): > 7940 nM
Ki (GSK3A (human)): 1260 nM
Ki (HIPK2 (human)): 200 nM
Ki (HIPK4 (human)): 2000 nM
Ki (IRAK4 (human)): 158 nM
Ki (MAP4K4 (human)): 316 nM
Ki (MAPK1 (human)): 5010 nM
Ki (MAPK13 (human)): > 7940 nM
Ki (MAPKAPK2 (human)): > 7940 nM
Ki (MAPKAPK3 (human)): > 10000 nM
Ki (MARK3 (human)): 3.98 nM
Ki (MELK (human)): 398 nM
Ki (MINK1 (human)): 200 nM
Ki (NEK2 (human)): 6310 nM
Ki (NEK4 (human)): 1000 nM
Ki (PAK1 (human)): > 10000 nM
Ki (PDPK1 (human)): 631 nM
Ki (PHKG2 (human)): 631 nM
Ki (PIM1 (human)): 501 nM
Ki (PIM2 (human)): 316 nM
Ki (PIM3 (human)): 200 nM
Ki (PLK4 (human)): 200 nM
Ki (PRKG1 (human)): > 2000 nM
Ki (PRKG2 (human)): > 1580 nM
Ki (ROCK1 (human)): 2000 nM
Ki (SRPK1 (human)): > 7940 nM
Ki (STK17A (human)): 39.8 nM
Ki (STK3 (human)): 316 nM
